# Like-named read-outs stand apart in the source and are kept apart here. Starred links: 1 amine or outer side, 2 acyl side, 3 side chain; linkers in the order of their positions; H or OH if unused. Positions of bridges follow the written chain, without caps; N, C: chain ends. Non-standard residues stand in square brackets, D forms with d. Residues, ends and D or L forms follow the SMILES beside them. ξ: configuration not given here. *: point of attachment. X4 = COc1cc2cc(c1Cl)N(C)C(=O)C[C@H](OC(=O)[C@H](C)N(C)C(=O)CCN(C)*)[C@]1(C)O[C@H]1[C@H](C)[C@@H]1C[C@@](O)(NC(=O)O1)[C@H](OC)/C=C/C=C(\C)C2; Dolaproine = CO[C@@H]([C@@H]1CCCN1)[C@@H](C)C(=O)O; Dil = CC[C@H](C)[C@H](NC)[C@@H](CC(=O)O)OC; TBMB = c1c(C[*:1])cc(C[*:3])cc1C[*:2]; PABC = O=C(OCc1ccc(N[*:1])cc1)[*:2]; Glutaryl = O=C(CCCC(=O)[*:2])[*:1]; X1 = C[C@@H](N*)[C@@H](O)c1ccccc1; ξ1Nal = NC(Cc1cccc2ccccc12)C(=O)O; Cit = NC(=O)NCCC[C@H](N)C(=O)O; NMeV = CN[C@H](C(=O)O)C(C)C; ξY = NC(Cc1ccc(O)cc1)C(=O)O; ξTle = CC(C)(C)C(N)C(=O)O; ξF = NC(Cc1ccccc1)C(=O)O; ξE = NC(CCC(=O)O)C(=O)O; ξD = NC(CC(=O)O)C(=O)O; ξN = NC(=O)CC(N)C(=O)O; ξC = NC(CS)C(=O)O; βAla = NCCC(=O)O; ξA = CC(N)C(=O)O; Sar = CNCC(=O)O
# Columns and labels:
# 11 tumor cell lines = experiment: 11 cancer cell line panel cytotoxicity, statements on the whole panel; settings: 72 h, read-out: IC50 on all 11 tumor cell lines
# Source text: (§1) Details of the initial cell plating procedure are described in Table 3.
# (§2) Data Details for Tables 5 and 6. Inhibition %=(Max−Sample value)/(Max−Min)*100.
# (§3) The IC50 curves were generated by 4 Parameter Logistic Model—Sigmoidal Dose-Response Model as follows: Y=Bottom+(Top−Bottom)/(1+10^((log EC50-X)*HillSlope)).
# PC-3 = experiment: cells; settings: for IC50: read-out: Re IC50
# Source text: as §1, §2, §3
# MDA-MB-231 = experiment: cells; settings: for IC50: read-out: Re IC50
# Source text: as §1, §2, §3
# MOLP-8 = experiment: cells; settings: for IC50: read-out: Re IC50
# Source text: as §1, §2, §3
# HCT15 = experiment: cells; settings: for IC50: read-out: Re IC50
# Source text: as §1, §2, §3
# HT29 = experiment: cells; settings: for IC50: read-out: Re IC50
# Source text: as §1, §2, §3
# HT1080 = experiment: cells; settings: for IC50: read-out: Re IC50
# Source text: as §1, §2, §3
# EBC-1 = experiment: cells; settings: for IC50: read-out: Re IC50
# Source text: as §1, §2, §3
# SNU-16 = experiment: cells; settings: for IC50: read-out: Re IC50
# Source text: as §1, §2, §3
# NCI-H1975 = experiment: cells; settings: for IC50: read-out: Re IC50
# Source text: as §1, §2, §3
# NCI-H292 = experiment: cells; settings: for IC50: read-out: Re IC50
# Source text: as §1, §2, §3
# HCC1806 = experiment: cells; settings: for IC50: read-out: Re IC50
# Source text: as §1, §2, §3
# HT1080 cells [1] = experiment: Cytotoxicity in HT1080 cells in presence and absence of 1 mM bacitracin (ATPlite, 24 hour exposure)
# Method: HT1080 cells (ATCC, via LGC, BIC918) Maintained in EMEM media (Sigma M2279)+10% FBS (Sigma Code F7524)+4 mM L-Glu (Invitrogen Cat 25030-024)
# I-1a and Toxins with Bacitracin—24 or 72 Hour Exposure in 96 Well Plates
# DB seeded cells in normal media, 75 μL in 96 well clear plates, ˜24 hours previous.
# HT1080—7.5 k cells/well: 50% confluent upon dosing.
# Dilute in media 1:42.85=5 μL DMSO dilute+209 μL media=>use 15 μL per well
# This gives a 5 μM top concentration for BDCs in assay
# Add 10 µL of media±bacitracin (2 plates of each)−leave for 1 hr
# (§4) Bacitracin=1 mM final concentration. This requires a 10 mM concentration with no DMSO.
# Add 15 μL treatment per well as in Table 19, below.
# Seal plates with gas permeable membrane and incubate at 37° C.
# Washout HT1080 plates with 2×150 μL PBS at 24 h and add 100 μL fresh media
# At t=72 h, equilibrate ATPlite reagent to room temperature. Add 10 ml buffer to each vial of lyophilized substrate. Add 100 μL reagent per well. Seal with PCR seal and cover to protect from light. Shake for 20 mins before reading luminescence
# L540 cells = experiment: Cytotoxicity in L540 cells in presence and absence of 1 mM bacitracin (ATPlite, 72 hour exposure); assay type: cell-based
# Method: L540 cells (DSMZ # ACC72, BIC5121), maintained in RPMI-1640 medium (Sigma # R8758)+20% heat-inactivated serum
# L540—20 k cells/well: 40% confluent upon dosing.
# as §4
# Add 100 μL reagent per well. […] Shake for 20 mins before reading luminescence
# [2] = Mortality, morbidity and body weight in HT1080 xenograft study (Example 13); assay type: in vivo, mouse
# Method: All the procedures related to animal handling, care and the treatment in the study were performed following the guidance of the Association for Assessment and Accreditation of Laboratory Animal Care (AAALAC). At the time of routine monitoring, the animals were daily checked for any effects of tumor growth and treatments on normal behavior such as mobility, food and water consumption (by looking only), body weight gain/loss (body weights were measured every day), eye/hair matting and any other abnormal effect as stated in the protocol. Death and observed clinical signs were recorded on the basis of the numbers of animals within each subset.
# Body weight was monitored regularly as an indirect measure of toxicity.
# HT1080 cells [3] = experiment: HT1080 cytotoxicity (ATPLite) in presence or absence of excess binding or non-binding peptide; assay type: cell-based; settings: for IC50: mean ± standard deviation
# Method: The target dependence of cytotoxicity of I-1a in cell lines expressing or lacking MT1-MMP was assessed by measuring ATP levels in an endpoint assay after 24 hours exposure to toxin, in the presence or absence of an excess of binding peptide or non-binding control peptide.
# HT1080 cells were seeded in 96 well plates (75 μL/well) and incubated overnight at 37° C.+5% CO2. The next day, peptides were prepared in buffer from a DMSO stock. 10 μL of buffer or peptide was added to the cells and incubated for 1 hour. Toxins were diluted in cell culture media and 15 μL/well was added to the cells (<0.5% final DMSO). Cells were approximately 30-50% confluent upon dosing. Plates were sealed with gas permeable seals and incubated for 24 hours at 37° C.+5% CO2. After 24 hours, media was removed, cells were washed with PBS and 100 μL fresh media was added per well. Cells were incubated for a further 48 hours at 37° C.+5% CO2.
# ATPLite reagent (Perkin Elmer) was equilibrated to room temperate and reconstituted in buffer as per the manufacturer's instructions. 100 μL reagent was added per well. Plates were sealed and shaken gently for 20 minutes to ensure complete cell lysis before luminescence was read using a BMG Pherastar. […] Data was analyzed using GraphPad Prism. Non-linear regression fit was used to calculate an IC50 for each toxic agent: Y=Bottom+(Top−Bottom)/(1+10^((Log IC50-X)*HillSlope)).
# [4] = read-out: IC50 with 1 mM bacitracin, 24 hour exposure, + 1 mM bacitracin (PDI inhibitor)
# [5] = read-out: Standard IC50, 24 hour exposure (high MT1 expression), no block
# [6] = 72 hour exposure (low/no MT1 expression), no block, read-out: Standard IC50
# [7] = read-out: IC50 with 1 mM bacitracin, 72 hour exposure, + 1 mM bacitracin
Structure (SMILES),"Top inhibition% (PC-3; PC-3, 72 hours)","Top inhibition% (MDA-MB-231; MDA-MB-231, 72 hours)","Top inhibition% (MOLP-8; MOLP-8, 72 hours)","Top inhibition% (HCT15; HCT15, 72 hours)","Top inhibition% (HT29; HT29, 72 hours)","Top inhibition% (HT1080; HT1080, 72 hours)","Top inhibition% (EBC-1; EBC-1, 72 hours)","Top inhibition% (SNU-16; SNU-16, 72 hours)","Top inhibition% (NCI-H1975; NCI-H1975, 72 hours)","Top inhibition% (NCI-H292; NCI-H292, 72 hours)","Top inhibition% (HCC1806; HCC1806, 72 hours)",IC50 (HT1080 cells [1]; [4]),IC50 (HT1080 cells [1]; [5]),IC50 (L540 cells; [6]),IC50 (L540 cells; [7]),"IC50 (PC-3; PC-3, 72 hours)","IC50 (MDA-MB-231; MDA-MB-231, 72 hours)","IC50 (MOLP-8; MOLP-8, 72 hours)","IC50 (HCT15; HCT15, 72 hours)","IC50 (HT29; HT29, 72 hours)",also measured
CCc1c2c(nc3ccc(O)cc13)-c1cc3c(c(=O)n1C2)COC(=O)[C@]3(O)CC [SN38],78%,78%,88%,80%,98%,96%,87%,76%,116%,92%,96%,–,–,–,–,–,–,–,–,–,"IC50 (11 tumor cell lines): < 300 nM; IC50 (PC-3; Homo sapiens, PC-3, 72 h): 48.7 nM; IC50 (MDA-MB-231; Homo sapiens, MDA-MB-231, 72 h): 25.1 nM; IC50 (MOLP-8; Homo sapiens, MOLP-8, 72 h): 3.59 nM; IC50 (HCT15; Homo sapiens, HCT-15, 72 h): 11.5 nM; IC50 (HT29; Homo sapiens, HT-29, 72 h): 23.7 nM; IC50 (HT1080; Homo sapiens, HT-1080, 72 h): 1.35 nM; IC50 (EBC-1; Homo sapiens, EBC-1, 72 h): 2.34 nM; IC50 (SNU-16; Homo sapiens, SNU-16, 72 h): 2.14 nM; IC50 (NCI-H1975; Homo sapiens, NCI-H1975, 72 h): 272 nM; IC50 (NCI-H292; Homo sapiens, NCI-H292, 72 h): 3.48 nM; IC50 (HCC1806; Homo sapiens, HCC1806, 72 h): 4.69 nM"
COc1cc2cc(c1Cl)N(C)C(=O)C[C@H](OC(=O)[C@H](C)N(C)C(=O)CCSSC)[C@]1(C)O[C@H]1[C@H](C)[C@@H]1C[C@@](O)(NC(=O)O1)[C@H](OC)/C=C/C=C(\C)C2 [DM1-Sme],54%,49%,92%,94%,82%,99%,65%,98%,64%,77%,88%,0.41 nM,0.07 nM,9.6 nM,12 nM,0.18 nM,0.79 nM,0.21 nM,0.94 nM,0.68 nM,"Fold shift with bacitracin (HT1080 cells [1]; 24 hour exposure, 1 mM bacitracin vs none): 5.9; IC50 (HT1080; HT1080, 72 hours): 0.22 nM; IC50 (EBC-1; EBC-1, 72 hours): 0.32 nM; IC50 (SNU-16; SNU-16, 72 hours): 0.77 nM; IC50 (NCI-H1975; NCI-H1975, 72 hours): 1.52 nM; IC50 (NCI-H292; NCI-H292, 72 hours): 0.27 nM; IC50 (HCC1806; HCC1806, 72 hours): 0.62 nM"
COc1cc2cc(c1Cl)N(C)C(=O)C[C@H](OC(=O)[C@H](C)N(C)C(=O)CCN(C)C(=O)OCc1ccc(NC(=O)[C@H](CCCNC(N)=O)NC(=O)[C@@H](NC(=O)CCCC(=O)NCCC(=O)N(C)CC(=O)N(C)CC(=O)N(C)CC(=O)N(C)CC(=O)N(C)CC(=O)N(C)CC(=O)N(C)CC(=O)N(C)CC(=O)N(C)CC(=O)N(C)CC(=O)NC(C)C(=O)NC3CSCc4cc5cc(c4)CSCC(NC(=O)C(C)NC(=O)C(Cc4cccc6ccccc46)NC(=O)C(CCC(=O)O)NC(=O)C(CC(N)=O)NC(=O)C(C)NC3=O)C(=O)NC(C)C(=O)NC(CC(=O)O)C(=O)NC(Cc3ccccc3)C(=O)NC(Cc3ccc(O)cc3)C(=O)NC(CC(=O)O)C(=O)NC(C(C)(C)C)C(=O)NC(C(N)=O)CSC5)C(C)C)cc1)[C@]1(C)O[C@H]1[C@H](C)[C@@H]1C[C@@](O)(NC(=O)O1)[C@H](OC)/C=C/C=C(\C)C2 (stereo partly drawn) [Compound I-8] ({X4-PABC-Cit-Val-Glutaryl-βAla}-[Sar][Sar][Sar][Sar][Sar][Sar][Sar][Sar][Sar][Sar][ξA][ξC][ξA][ξN][ξE][ξ1Nal][ξA][ξC][ξA][ξD][ξF][ξY][ξD][ξTle][ξC]-NH2; linker 12-18-25 via TBMB),–,–,–,–,–,–,–,–,–,–,–,–,–,–,–,–,–,–,–,–,mouse with severe tumor ulceration ([2]; 1 mg/kg biw): 1/3; mouse died at day 14 ([2]; 3 mg/kg biw): 1/3
"CC[C@H](C)[C@@H]([C@@H](CC(=O)N1CCC[C@H]1[C@H](OC)[C@@H](C)C(=O)N[C@H](C)[C@@H](O)c1ccccc1)OC)N(C)C(=O)[C@@H](NC(=O)[C@@H](NC)C(C)C)C(C)C [MMAE, monomethyl auristatin E] (H-[NMeV]V[Dil][Dolaproine]-X1)",58%,61%,93%,100%,81%,97%,67%,99%,65%,86%,91%,0.15 nM,0.083 nM,0.49 nM,0.28 nM,0.85 nM,0.62 nM,0.65 nM,21.4 nM,0.42 nM,"IC50 (HT1080 cells [3]; 24 hours exposure, No block, 3 repeats): 0.06 nM; Maximum kill (HT1080 cells [3]; +250 μM binding peptide): 95%; IC50 (HT1080 cells [3]; +250 μM binding peptide): 0.05 nM; Maximum kill (HT1080 cells [3]; +250 μM non-binding peptide): 95%; IC50 (HT1080 cells [3]; +250 μM non-binding peptide): 0.05 nM; Maximum kill (HT1080 cells [3]; No block, compared to a lysis control): 95%; IC50 (HT1080; HT1080, 72 hours): 0.68 nM; IC50 (EBC-1; EBC-1, 72 hours): 0.35 nM; IC50 (SNU-16; SNU-16, 72 hours): 0.18 nM; IC50 (NCI-H1975; NCI-H1975, 72 hours): 0.38 nM; IC50 (NCI-H292; NCI-H292, 72 hours): 0.34 nM; IC50 (HCC1806; HCC1806, 72 hours): 0.26 nM"
